Source: patent US20180042249A1, “METHOD FOR REDUCTION IN MICROBIAL ACTIVITY IN POULTRY PROCESSING” (Zeco, Inc., priority 2014, published 2018)

Tested on: bacterial count on poultry carcasses (chicken samples)
Experiment: Antimicrobial efficacy of elevated concentration and temperature application of PAA to poultry carcasses (average bacterial count reduction)
Type: cell-based
Experimental: As summarized in Table 1 below, ten chicken samples were treated with an elevated peroxyacetic acid concentration at an elevated temperature for a specified period of time using either an equilibrium peroxyacetic acid intervention solution or a pH modified peroxyacetic acid intervention solution. […] The treated poultry carcasses were measured for the average bacterial count reduction as a result of the elevated peroxyacetic acid concentration and elevated temperature.

## peroxyacetic acid [PAA]
PAA 500 ppm, 72 °F, 10 seconds exposure, pH 7.7 (pH modified PAA solution)
  Average % Reduction (bacterial count): 97.34%
PAA 500 ppm, 72 °F, 10 seconds exposure, pH ~3 (equilibrium PAA solution)
  Average % Reduction (bacterial count): 70.57%
PAA 500 ppm, 125 °F, 7 seconds exposure, pH 7.7 (pH modified PAA solution)
  Average % Reduction (bacterial count): 93.68%
PAA 500 ppm, 125 °F, 7 seconds exposure, pH ~3 (equilibrium PAA solution)
  Average % Reduction (bacterial count): 77.26%
PAA 600 ppm, 125 °F, 7 seconds exposure, pH 7.7 (pH modified PAA solution)
  Average % Reduction (bacterial count): 89.34%
PAA 600 ppm, 125 °F, 7 seconds exposure, pH ~3 (equilibrium PAA solution)
  Average % Reduction (bacterial count): 61.94%
PAA 700 ppm, 125 °F, 7 seconds exposure, pH 7.7 (pH modified PAA solution)
  Average % Reduction (bacterial count): 97.87%
PAA 700 ppm, 125 °F, 7 seconds exposure, pH ~3 (equilibrium PAA solution)
  Average % Reduction (bacterial count): 92.27%
Elevated PAA concentration and temperature, period of time of at least 7 seconds (summary of Table 1)
  bacterial count reduction: ≥ 60%
